These results are taken from patent US20110224210A1, “NOVEL BIS-AMIDES AS ANTI-MALARIAL AGENTS” (priority 2008, published 2011).

This experiment deals with P. falciparum K1 (strain resistant to chloroquine and pyrimethamine), erythrocytic stages. Kind of experiment: Plasmodium falciparum in vitro assay, [3H] hypoxanthine incorporation. The format is cell-based. The note with it: Plasmodium falciparum, K1, P. falciparum strain K1; [3H] hypoxanthine incorporation; read-out: IC50 (nM) on K1. In outline: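 Chloroquine/pyrimethamine-resistant K1 erythrocytic cultures (2.5% haematocrit, 0.3% parasitaemia, hypoxanthine-free RPMI with Albumax) exposed to seven doubling dilutions at 37 °C under low O2.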

As for `O=C([C@H](Cc1ccccc1)N(Cc1ccc(-c2ccccn2)cc1)C(=O)C=Cc1ccc(C(F)(F)F)nc1)N1Cc2ccccc2C1` [Example 58, (S)-N-[1-Benzyl-2-(1,3-dihydro-isoindol-2-yl)-2-oxo-ethyl]-N-(4-pyridin-2-yl-benzyl)-3-(6-trifluoromethyl-pyridin-3-yl)-acrylamide], the concentration for half-maximal inhibition (IC50) amounted to 50 nM.
For the molecule `COCCN(C)C(=O)[C@H](Cc1ccccc1)N(Cc1ccc(N2CCOCC2)cc1)C(=O)C=Cc1cc(C)nn1C` [Example 59, (S)-3-(2,5-Dimethyl-2H-pyrazol-3-yl)-N-{1-[(2-methoxy-ethyl)-methyl-carbamoyl]-2-phenyl-ethyl}-N-(4-morpholin-4-yl-benzyl)-acrylamide], the concentration for half-maximal inhibition (IC50) was 121 nM.
Turning to `COCCN(C)C(=O)[C@H](Cc1ccccc1)N(Cc1ccc(N2CCOCC2)cc1)C(=O)C=Cc1c(C)nn(C)c1C` [Example 60, (S)-N-{1-[(2-Methoxy-ethyl)-methyl-carbamoyl]-2-phenyl-ethyl}-N-(4-morpholin-4-yl-benzyl)-3-(1,3,5-trimethyl-1H-pyrazol-4-yl)-acrylamide], the half-inhibitory concentration (IC50) is 48 nM.
Take `COCCN(C)C(=O)[C@H](Cc1ccccc1)N(Cc1ccc(N2CCOCC2)cc1)C(=O)C=Cc1cnc(C)n1C` [Example 61, (S)-3-(2,3-Dimethyl-3H-imidazol-4-yl)-N-{1-[(2-methoxy-ethyl)-methyl-carbamoyl]-2-phenyl-ethyl}-N-(4-morpholin-4-yl-benzyl)-acrylamide]: the half-maximal inhibitory concentration (IC50) turned out to be 464 nM.
Under `COCCN(C)C(=O)[C@H](Cc1ccccc1)N(Cc1ccc(N2CCOCC2)cc1)C(=O)C=Cc1csc(C)n1` [Example 62, (S)-N-{1-[(2-Methoxy-ethyl)-methyl-carbamoyl]-2-phenyl-ethyl}-3-(2-methyl-thiazol-4-yl)-N-(4-morpholin-4-yl-benzyl)-acrylamide] stands 138 nM.
As to `COCCN(C)C(=O)[C@H](Cc1ccccc1)N(Cc1ccc(N2CCOCC2)cc1)C(=O)C=Cc1sc(C)nc1C` [Example 63, (S)-3-(2,4-Dimethyl-thiazol-5-yl)-N-{1-[(2-methoxy-ethyl)-methyl-carbamoyl]-2-phenyl-ethyl}-N-(4-morpholin-4-yl-benzyl)-acrylamide], the IC50 was determined as 87 nM.
For the molecule `COCCN(C)C(=O)[C@H](Cc1ccccc1)N(Cc1ccc(N2CCOCC2)cc1)C(=O)C=Cc1c(C)noc1C` [Example 64, (S)-3-(3,5-Dimethyl-isoxazol-4-yl)-N-{1-[(2-methoxy-ethyl)-methyl-carbamoyl]-2-phenyl-ethyl}-N-(4-morpholin-4-yl-benzyl)-acrylamide], the 50% inhibitory concentration (IC50) was 180 nM.
Take `COCCN(C)C(=O)[C@H](Cc1ccccc1)N(Cc1ccc(N2CCOCC2)cc1)C(=O)C=Cc1nc(C)oc1C` [Example 65, (S)-3-(2,5-Dimethyl-oxazol-4-yl)-N-{1-[(2-methoxy-ethyl)-methyl-carbamoyl]-2-phenyl-ethyl}-N-(4-morpholin-4-yl-benzyl)-acrylamide]: the 50% inhibitory concentration (IC50) was found to be 269 nM.
Regarding `COCCN(C)C(=O)[C@H](Cc1ccccc1)N(Cc1ccc(N2CCOCC2)cc1)C(=O)C=Cc1csnn1` [Example 66, (S)-N-{1-[(2-Methoxy-ethyl)-methyl-carbamoyl]-2-phenyl-ethyl}-N-(4-morpholin-4-yl-benzyl)-3-[1,2,3]thiadiazol-4-yl-acrylamide], the half-maximal inhibitory concentration (IC50) amounted to 494 nM.
Under `COCCN(C)C(=O)[C@H](Cc1ccccc1)N(Cc1ccc(N2CCOCC2)cc1)C(=O)C=Cc1ccc(C(F)(F)F)cn1` [Example 67, (S)-N-{1-[(2-Methoxy-ethyl)-methyl-carbamoyl]-2-phenyl-ethyl}-N-(4-morpholin-4-yl-benzyl)-3-(5-trifluoromethyl-pyridin-2-yl)-acrylamide] stands less than 8 nM.
As for `COCCN(C)C(=O)[C@H](Cc1ccccc1)N(Cc1ccc(N2CCOCC2)cc1)C(=O)C=Cc1ccc(C)cn1` [Example 68, (S)-N-{1-[(2-Methoxy-ethyl)-methyl-carbamoyl]-2-phenyl-ethyl}-3-(5-methyl-pyridin-2-yl)-N-(4-morpholin-4-yl-benzyl)-acrylamide], the concentration for half-maximal inhibition (IC50) worked out at 156 nM.
Regarding `COCCN(C)C(=O)[C@H](Cc1ccccc1)N(Cc1ccc(N2CCOCC2)cc1)C(=O)C=Cc1ccc(C)nc1` [Example 69, (S)-N-{1-[(2-Methoxy-ethyl)-methyl-carbamoyl]-2-phenyl-ethyl}-3-(6-methyl-pyridin-3-yl)-N-(4-morpholin-4-yl-benzyl)-acrylamide], the IC50 came to 169 nM.
With `COCCN(C)C(=O)[C@H](Cc1ccccc1)N(Cc1ccc(N2CCOCC2)cc1)C(=O)C=Cc1ccc(Cl)nc1` [Example 70, (S)-3-(6-Chloro-pyridin-3-yl)-N-{1-[(2-methoxy-ethyl)-methyl-carbamoyl]-2-phenyl-ethyl}-N-(4-morpholin-4-yl-benzyl)-acrylamide], the IC50 is 144 nM.
As to `COCCN(C)C(=O)[C@H](Cc1ccccc1)N(Cc1ccc(N2CCOCC2)cc1)C(=O)C=Cc1ccc(OC)nc1` [Example 71, (S)-N-{1-[(2-Methoxy-ethyl)-methyl-carbamoyl]-2-phenyl-ethyl}-3-(6-methoxy-pyridin-3-yl)-N-(4-morpholin-4-yl-benzyl)-acrylamide], the IC50 is 54 nM.
With `COCCN(C)C(=O)[C@H](Cc1ccccc1)N(Cc1ccc(N2CCOCC2)cc1)C(=O)C=Cc1cnc(OC)nc1` [Example 72, (S)-N-{1-[(2-Methoxy-ethyl)-methyl-carbamoyl]-2-phenyl-ethyl}-3-(2-methoxy-pyrimidin-5-yl)-N-(4-morpholin-4-yl-benzyl)-acrylamide], the IC50 came out at 344 nM.
The figure for `COCCN(C)C(=O)[C@H](Cc1ccccc1)N(Cc1ccc(-c2ccccn2)cc1)C(=O)C=Cc1ccn(C)n1` [Example 73, (S)-N-{1-[(2-Methoxy-ethyl)-methyl-carbamoyl]-2-phenyl-ethyl}-3-(1-methyl-1H-pyrazol-3-yl)-N-(4-pyridin-2-yl-benzyl)-acrylamide] is 156 nM; for `COCCN(C)C(=O)[C@H](Cc1ccccc1)N(Cc1ccc(-c2ccccn2)cc1)C(=O)C=Cc1cc(C)nn1C` [Example 74, (S)-3-(2,5-Dimethyl-2H-pyrazol-3-yl)-N-{1-[(2-methoxy-ethyl)-methyl-carbamoyl]-2-phenyl-ethyl}-N-(4-pyridin-2-yl-benzyl)-acrylamide] it is 40 nM.
With `COCCN(C)C(=O)[C@H](Cc1ccccc1)N(Cc1ccc(-c2ccccn2)cc1)C(=O)C=Cc1c(C)nn(C)c1C` [Example 75, (S)-N-{1-[(2-Methoxy-ethyl)-methyl-carbamoyl]-2-phenyl-ethyl}-N-(4-pyridin-2-yl-benzyl)-3-(1,3,5-trimethyl-1H-pyrazol-4-yl)-acrylamide], the 50% inhibitory concentration (IC50) is 11 nM.
For the molecule `COCCN(C)C(=O)[C@H](Cc1ccccc1)N(Cc1ccc(-c2ccccn2)cc1)C(=O)C=Cc1cnc(C)n1C` [Example 76, (S)-3-(2,3-Dimethyl-3H-imidazol-4-yl)-N-{1-[(2-methoxy-ethyl)-methyl-carbamoyl]-2-phenyl-ethyl}-N-(4-pyridin-2-yl-benzyl)-acrylamide], the IC50 worked out at 163 nM.
For the molecule `COCCN(C)C(=O)[C@H](Cc1ccccc1)N(Cc1ccc(-c2ccccn2)cc1)C(=O)C=Cc1sc(C)nc1C` [Example 77, (S)-3-(2,4-Dimethyl-thiazol-5-yl)-N-{1-[(2-methoxy-ethyl)-methyl-carbamoyl]-2-phenyl-ethyl}-N-(4-pyridin-2-yl-benzyl)-acrylamide], the IC50 stood at 23 nM.
For `COCCN(C)C(=O)[C@H](Cc1ccccc1)N(Cc1ccc(-c2ccccn2)cc1)C(=O)C=Cc1csc(C)n1` [Example 78, (S)-N-{1-[(2-Methoxy-ethyl)-methyl-carbamoyl]-2-phenyl-ethyl}-3-(2-methyl-thiazol-4-yl)-N-(4-pyridin-2-yl-benzyl)-acrylamide], the IC50 is 47 nM.
For the molecule `COCCN(C)C(=O)[C@H](Cc1ccccc1)N(Cc1ccc(-c2ccccn2)cc1)C(=O)C=Cc1cc(C)on1` [Example 79, (S)-N-{1-[(2-Methoxy-ethyl)-methyl-carbamoyl]-2-phenyl-ethyl}-3-(5-methyl-isoxazol-3-yl)-N-(4-pyridin-2-yl-benzyl)-acrylamide], the IC50 amounted to 288 nM.
On to `COCCN(C)C(=O)[C@H](Cc1ccccc1)N(Cc1ccc(-c2ccccn2)cc1)C(=O)C=Cc1c(C)noc1C` [Example 80, (S)-3-(3,5-Dimethyl-isoxazol-4-yl)-N-{1-[(2-methoxy-ethyl)-methyl-carbamoyl]-2-phenyl-ethyl}-N-(4-pyridin-2-yl-benzyl)-acrylamide], for which the concentration for half-maximal inhibition (IC50) was 44 nM.
In the case of `COCCN(C)C(=O)[C@H](Cc1ccccc1)N(Cc1ccc(-c2ccccn2)cc1)C(=O)C=Cc1nc(C)oc1C` [Example 81, (S)-3-(2,5-Dimethyl-oxazol-4-yl)-N-{1-[(2-methoxy-ethyl)-methyl-carbamoyl]-2-phenyl-ethyl}-N-(4-pyridin-2-yl-benzyl)-acrylamide], the half-maximal inhibitory concentration (IC50) is 102 nM.
As to `COCCN(C)C(=O)[C@H](Cc1ccccc1)N(Cc1ccc(-c2ccccn2)cc1)C(=O)C=Cc1ccc(OC)nn1` [Example 82, (S)-N-{1-[(2-Methoxy-ethyl)-methyl-carbamoyl]-2-phenyl-ethyl}-3-(6-methoxy-pyridazin-3-yl)-N-(4-pyridin-2-yl-benzyl)-acrylamide], the half-maximal inhibitory concentration (IC50) was found to be 99 nM.
With `COCCN(C)C(=O)[C@H](Cc1ccccc1)N(Cc1ccc(-c2ccccn2)cc1)C(=O)C=Cc1cnc(C)nc1` [Example 83, (S)-N-{1-[(2-Methoxy-ethyl)-methyl-carbamoyl]-2-phenyl-ethyl}-3-(2-methyl-pyrimidin-5-yl)-N-(4-pyridin-2-yl-benzyl)-acrylamide], the IC50 was 209 nM.
Turning to `COCCN(C)C(=O)[C@H](Cc1ccccc1)N(Cc1ccc(-c2ccccn2)cc1)C(=O)C=Cc1ccc(C)nc1` [Example 84, (S)-N-{1-[(2-Methoxy-ethyl)-methyl-carbamoyl]-2-phenyl-ethyl}-3-(6-methyl-pyridin-3-yl)-N-(4-pyridin-2-yl-benzyl)-acrylamide], the IC50 was found to be 27 nM.

A word on the IC50: it is the concentration needed to halve the response being measured.
